According to paper PMC8625207, “Antikinetoplastid Activity of Sesquiterpenes Isolated from the Zoanthid Palythoa aff. clavata” (Pharmaceuticals, 2021):

Experiments:
[1] = tested on: promastigotes of Leishmania amazonensis strain (MHOM/BR/77/LTB0016); assay: alamarBlue activity against promastigotes of L. amazonensis; type: cell-based; conditions: for IC50: Leishmania amazonensis, 72 h of incubation, mean with standard deviation; for Promastigotes L. amazonensis SI: selectivity index CC50/IC50
Protocol: (§1) For the anti-leishmanicidal experiments, promastigotes and amastigotes of Leishmania amazonensis strain (MHOM/BR/77/LTB0016) and promastigotes of Leishmania donovani strain (MHOM/IN/90/GE1F8R) were used, and they were maintained in RPMI 1640 medium (Gibco, Waltham, MA, USA) at 26 °C. For the trypanocidal experiments, epimastigotes of Trypanosoma cruzi (Y strain) were used, and they were maintained in liver infusion tryptose (LIT) medium supplemented with 10% of fetal bovine serum (FBS) at 26 °C. Murine macrophages J774A.1 (ATCC #TIB-67), maintained in DMEM medium at 37 °C with 5% CO2, were used for the cytotoxic activity assays.
(§2) For the activity against extracellular parasites of kinetoplastid, Leishmania and Trypanosoma parasites, in a 96-well plate, serial dilutions of the compounds were added with dilutions of 10^5 parasites per well and a 10% of alamarBlue Cell Viability Reagent® (Thermo Fisher Scientific, Waltham, MA, USA). After 72 h of incubation at 26 °C, the fluorescence of each well was measured in the EnSpire Multimode Plate Reader® (PerkinElmer, Thermo Fisher Scientific, Madrid, Spain). The inhibitory concentration 50 (IC50) was calculated by nonlinear regression analysis.

[2] = tested on: promastigotes of L. donovani
[3] = tested on: epimastigotes of Trypanosoma cruzi (Y strain); assay: alamarBlue activity against epimastigotes of T. cruzi; type: cell-based; conditions: for IC50: Trypanosoma cruzi, 72 h of incubation, mean with standard deviation; for Epimastigotes T. cruzi SI: selectivity index CC50/IC50
Protocol: as §1, §2

[4] = alamarBlue cytotoxicity on murine macrophages; type: cell-based; conditions: mouse, J774A.1 macrophages; 24 h of incubation; read-out: Macrophages J744A.1 CC50
[5] = tested on: promastigotes of Leishmania donovani strain (MHOM/IN/90/GE1F8R); assay: alamarBlue activity against promastigotes of L. donovani; type: cell-based; conditions: for IC50: Leishmania donovani, 72 h of incubation, mean with standard deviation; for Promastigotes L. donovani SI: selectivity index CC50/IC50 (macrophages J744A.1 vs parasite)
Protocol: as §1, §2

[6] = tested on: promastigotes of L. donovani; assay: Chromatin condensation, Hoechst 33342/propidium iodide; type: cell-based, Leishmania donovani; conditions: IC90, 24 h
[7] = tested on: amastigotes of L. amazonensis; assay: alamarBlue activity against intracellular amastigotes of L. amazonensis in murine macrophages; type: cell-based, Leishmania amazonensis; conditions: for IC50: Leishmania amazonensis, Macrophage, 24 h of incubation, intracellular form in murine macrophages; for Amastigotes L. amazonensis SI: selectivity index CC50/IC50
Protocol: as §1
To determinate the IC50 against the intracellular form of the parasite amastigotes of L. amazonensis, the alamarBlue colorimetric method was also used. In a 96-well plate, murine macrophages were added in a concentration of 10^4 cells per well. After adherence of the cells, 10^5 promastigotes of the parasite were added to reach 1:10 cell:parasites per well. After 24 h of incubation at 37 °C with 5% of CO2 for the internalization of the parasite, the wells were washed, and serial dilutions of the compounds were added. After an incubation of 24 h with the compounds, the wells were washed, and the macrophages were broken with a solution of SDS (Sodium dodecyl sulfate) at 0.05% for 30 s. After adding fresh RPMI medium, we added 10% of alamarBlue, and the plates were incubated at 26 °C for 96 h. Finally, the fluorescence was measured by using the EnSpire Multimode Plate Reader® (PerkinElmer, Thermo Fisher Scientific, Madrid, Spain), and the IC50 of each compound was calculated.

[8] = tested on: promastigotes of L. amazonensis; assay: Chromatin condensation, Hoechst 33342/propidium iodide; type: cell-based, Leishmania amazonensis; conditions: IC90, 24 h
[9] = tested on: L. amazonensis; assay: Mitochondrial membrane potential, JC-1; type: cell-based, Leishmania amazonensis; conditions: IC90, 24 h
Protocol: The alterations on the mitochondrial membrane potential were measured by using JC-1® reagent. The results were expressed in percentage of variations in the mitochondrial membrane potential relative to the untreated control.
The alterations in the mitochondrial membrane potential were determined by using the JC-1 Mitochondrial Membrane Potential Assay Kit® (Cayman Chemical, Ann Arbor, MI, USA). […] Finally, using the EnSpire Multimode Plate Reader® (PerkinElmer, Thermo Fisher Scientific, Madrid, Spain), we measured the fluorescence, and the results were expressed in the percentage relative to the negative control (without any treatment), using the ratio 595 nm/535 nm (aggregates/monomers). All of the experiments were performed in triplicate in three different days (n = 3).

[10] = tested on: promastigotes of L. amazonensis; assay: Plasmatic membrane permeability, SYTOX Green; type: cell-based, Leishmania amazonensis; conditions: IC90, 24 h
[11] = tested on: promastigotes of L. amazonensis; assay: Reactive oxygen species detection, CellROX Deep Red; type: cell-based, Leishmania amazonensis; conditions: IC90, 24 h
[12] = tested on: epimastigotes of T. cruzi; assay: Chromatin condensation, Hoechst 33342/propidium iodide; type: cell-based, Trypanosoma cruzi; conditions: IC90, 24 h
[13] = tested on: epimastigotes of T. cruzi; assay: Reactive oxygen species detection, CellROX Deep Red; type: cell-based, Trypanosoma cruzi; conditions: IC90, 24 h
[14] = tested on: epimastigotes of T. cruzi
[15] = tested on: T. cruzi; assay: ATP levels, CellTiter-Glo; type: cell-based, Trypanosoma cruzi; conditions: IC90, 24 h, negative control = 100%
Protocol: (§3) The levels of ATP were measured by using CellTiter-Glo® reagent, and values of luminescence were obtained by the EnSpire Multimode Plate Reader®. Results were processed and represented in Figure 4 as the percentage of ATP relative to the negative control (without treatment) that corresponds with 100% of ATP level.
(§4) The levels of ATP in the wells were measured by using the CellTiter-Glo® Luminescent Cell Viability Assay (Promega, WI, USA). […] These volumes were transferred to a white plate, and 25 μL of kit was added to each well. After 10 min of incubation at room temperature, the luminescence was determined by using the EnSpire Multimode Plate Reader® (PerkinElmer), and the results were expressed as the percentage of production of ATP relative to the negative control (without any treatment). All of the experiments were performed in triplicate in three different days (n = 3).

[16] = tested on: L. amazonensis; assay: ATP levels, CellTiter-Glo; type: cell-based, Leishmania amazonensis; conditions: IC90, 24 h, negative control = 100%
Protocol: as §3, §4

[17] = tested on: T. cruzi; parameters: method as in PMID 17950283; conditions: read-out: IC50 against T. cruzi; cited from earlier work

Row | SMILES | IC50 [3] | IC50 [1] | Promastigotes L. amazonensis SI [1] | Epimastigotes T. cruzi SI [3] | CC50 at 24 h [4] | IC50 [5] | Promastigotes L. donovani SI [5] | Amastigotes L. amazonensis SI [7] | other results
1 | C=C1C(=O)OC2C=C(C)CCC=C(COC(C)=O)CCC12 (mixture of isomers) [cis,trans-costunolide-14-acetate (3), cis,trans-costunolide-14-acetate] | 8.88 ± 0.91 µM | 8.62 ± 1 µM | 5.92 | 5.75 | 51 ± 7.54 µM | 5.41 ± 1.28 µM | 9.43 | 2.08 | Plasmatic membrane permeability [2]: increase on the plasmatic membrane permeability; Chromatin condensation [6]: blue and red fluorescence was produced; IC50 [7]: 24.6 ± 3.64 µM
2 | C=C1CCC2C(=C)C(=O)OC2C=C(C)CCC1=O (stereo not drawn) [Anhydroartemorin (2), anhydroartemorin] | 13 ± 4.95 µM | 25.6 ± 5.88 µM | 7.00 | 13.76 | 179 ± 2.27 µM | > 102 µM | <1.76 | 24.06 | Chromatin condensation [12]: caused chromatin condensation; Reactive oxygen species detection [13]: intense fluorescence due to ROS detection; Chromatin condensation [8]: induced chromatin condensation; Plasmatic membrane permeability [14]: increase on the plasmatic membrane permeability; Plasmatic membrane permeability [10]: increase on the plasmatic membrane permeability; Percentage of ATP relative to the negative control [15]: 27.17%; Percentage of ATP relative to the negative control [16]: 28.76%; IC50 [7]: 7.44 ± 0.45 µM
3 | O=C(Cn1ccnc1[N+](=O)[O-])NCc1ccccc1 [Benznidazole, reference compound] | – | – | – | – | > 1540 µM | – | – | – | –
4 | C=C1C(=O)O[C@H]2CC(=C)[C@H]3CCC(=C)[C@@H](O3)[C@@H](O)[C@H]12 [Dehydroxyisobadgerin (9), dehydroxyisobadgerin] | 59.8 ± 9.76 µM | 25.5 ± 3.2 µM | 1.96 | 0.84 | 50 ± 13.1 µM | 34 ± 3.32 µM | 1.47 | – | –
5 | C=C1C(=O)O[C@H]2CC(=C)[C@H]3CC[C@@](C)(O)[C@@H](O3)[C@@H](O)[C@H]12 [Isobadgerin (8), isobadgerin] | > 89.2 µM | > 89.2 µM | <1.01 | <1.01 | 89.7 ± 3.92 µM | > 89.2 µM | <1.01 | – | –
6 | CCCCCCCCCCCCCCCCOP(=O)([O-])OCC[N+](C)(C)C [Miltefosine, reference compound] | – | – | 11.14 | – | 72.2 ± 3.06 µM | – | 21.74 | 23.17 | –
7 | C=C1C(=O)O[C@H]2[C@H]1CC/C(C)=C/CC[C@@]1(C)O[C@@H]21 [Parthenolide (15), parthenolide] | – | – | – | – | – | – | – | – | IC50 [17]: 2.01 µM
8 | C=C1C(=O)O[C@@H]2[C@H]3C(C)=CC[C@@H](O)[C@]3(C)CC[C@@H]12 [Santamarine (12), santamarine] | 9.74 ± 2.68 µM | > 101 µM | <0.77 | 7.91 | – | 12.1 ± 4.67 µM | 6.35 | – | –
9 | C=C1C[C@@H]2OC(=O)C(=C)[C@H]2[C@H](O)/C=C(\C)CCC1=O [Tamirin (7), Tamirin] | > 69 µM | 11.7 ± 2.52 µM | 1.99 | <0.34 | 23.3 ± 1.27 µM | 4.13 ± 1.25 µM | 5.65 | – | –
10 | C=C1C(=O)O[C@@H]2/C=C(\C)[C@H](O)CC/C(C)=C/[C@H](O)[C@@H]12 [Tatridin A (4), tatridin A] | > 94.6 µM | > 94.6 µM | <0.34 | <0.34 | 32.4 ± 6.55 µM | > 94.6 µM | <0.34 | – | –
11 | C=C1C(=O)O[C@@H]2/C=C(\C)[C@H](O)CC/C(C)=C/[C@H](OC(C)=O)[C@@H]12 [Tatridin A acetate (5), tatridin A acetate] | > 81.6 µM | > 81.6 µM | <0.24 | <0.24 | 19.3 ± 0.91 µM | > 81.6 µM | <0.24 | – | –

More lines, main results first:

Row | IC50 [3] | SMILES | IC50 [1] | Promastigotes L. amazonensis SI [1] | Epimastigotes T. cruzi SI [3] | CC50 at 24 h [4] | IC50 [5] | Promastigotes L. donovani SI [5] | Amastigotes L. amazonensis SI [7] | other results
12 | > 201 µM | C=C1C(=O)O[C@@H]2[C@@H]3[C@@](C)(CC[C@@H]12)[C@H](O)CC[C@]3(C)O [4b-Hydroxyarbusculin A (11), 4β-hydroxyarbusculin A] | 76.4 ± 5.72 µM | >5.27 | – | > 403 µM | > 201 µM | – | >25.47 | Chromatin condensation [8]: induced chromatin condensation; Mitochondrial membrane potential relative to the negative control [9]: 40.99%; Plasmatic membrane permeability [10]: increase on the plasmatic membrane permeability; Reactive oxygen species detection [11]: presence of red fluorescence; IC50 [7]: 15.8 ± 1.01 µM; Amastigotes L. amazonensis SI ([7]; listed as 4β-hydroxyarbusculin A (11)): > 25.47
13 | 81 ± 12 µM | C=C1CCC2C(=C)C(=O)OC2C=C(C)CCC1O (stereo not drawn) [Artemorin (1), artemorin] | 40.9 ± 2.82 µM | >9.85 | >4.97 | > 403 µM | > 201 µM | – | >10.04 | IC50 [7]: 40.1 ± 3.44 µM
14 | > 105 µM | C=C1CC[C@@H](C(C)C)/C=C/[C@@](C)(O)CC[C@H]1O [Nephthediol (10), (−) nephthediol] | > 105 µM | <0.22 | <0.22 | 23.58 ± 0.21 µM | > 105 µM | <0.22 | – | –
15 | 58.2 ± 13.1 µM | C=C1CC[C@@H](O)[C@]2(C)CC[C@H]3C(=C)C(=O)O[C@@H]3[C@@H]12 [Reynosin (13), reynosin] | 40.2 ± 8.78 µM | 1.94 | 1.34 | – | > 201 µM | <0.39 | – | –
16 | > 94.6 µM | C=C1C(=O)O[C@H]2CC(=C)[C@@H](O)CC/C(C)=C/[C@@H](O)[C@H]12 [Tanachin (6), tanachin] | > 94.6 µM | <1.05 | <1.05 | 99.2 ± 4.43 µM | > 94.6 µM | <1.05 | – | –
